Measured values from patent US10278957B2, “Opioid agonist peptides and uses thereof” (Protagonist Therapeutics, Inc., priority 2017, dated 2019).
Numbered stars: 1 amine (or outer) side, 2 acyl side, 3 side chain; on linkers, the order of the positions; unused ones are H or OH. Bridge positions count the residues as written; N and C are the ends. Square brackets hold non-standard residues; d marks the D form. Peptide text beside a SMILES is read from it. I, II: the chains in the order shown. Diglycolyl = O=C(COCC(=O)[*:2])[*:1]; Dmt = Cc1cc(O)cc(C)c1C[C@H](N)C(=O)O; β3hF = N[C@H](CC(=O)O)Cc1ccccc1; Sar = CNCC(=O)O

Tests used:
[1] = SIF assay (stability in simulated intestinal fluid); type: in vitro ADME; conditions: for half-life at 20 μM: simulated intestinal fluid (SIF) with pancreatin, simulated intestinal fluid, pH 6.8, pancreatin, 37° C.
Method: SIF was prepared by adding 6.8 g of monobasic potassium phosphate and 10.0 g of pancreatin to 1.0 L of water. After dissolution, the pH was adjusted to 6.8 using NaOH. DMSO stocks (2 mM) were prepared for each of the opioid agonist peptides. Aliquots of the DMSO solutions were dosed into […], each containing 0.5 mL of SIF, which was pre-warmed to 37° C. The final opioid agonist peptide concentration was 20 μM. The vials were kept in a benchtop Thermomixer® for the duration of the experiment. At each timepoint (0, 5, 10, 20, 40, 60, or 360 minutes or 24 hours), 1.0 mL of acetonitrile containing 1% formic acid was added to one vial to terminate the reaction. Samples were stored at 4° C. until the end of the experiment. After the final timepoint was sampled, the tubes were mixed and then centrifuged at 3,000 rpm for 10 minutes. Aliquots of the supernatant were removed, diluted 1:1 into distilled water containing an internal standard, and analyzed by LCMS/MS. The percent of the opioid agonist peptide remaining at each timepoint was calculated based on the peak area response ratio of opioid agonist peptide to the internal standard. Time 0 was set to 100%, and all later timepoints were calculated relative to time 0. Half-lives were calculated by fitting to a first-order exponential decay equation using Graph pad.

[2] = biological target: T1, δ-opioid receptor (DOR) (Homo sapiens, UniProt P41143); assay: DOR agonist cAMP assay (HitHunter cAMP, forskolin-stimulated); type: cell-based
T1 construct: host or cells: cAMP Hunter CHO-K1 OPRD1 Gαi cell line
T1 sequence (P41143 whole entry): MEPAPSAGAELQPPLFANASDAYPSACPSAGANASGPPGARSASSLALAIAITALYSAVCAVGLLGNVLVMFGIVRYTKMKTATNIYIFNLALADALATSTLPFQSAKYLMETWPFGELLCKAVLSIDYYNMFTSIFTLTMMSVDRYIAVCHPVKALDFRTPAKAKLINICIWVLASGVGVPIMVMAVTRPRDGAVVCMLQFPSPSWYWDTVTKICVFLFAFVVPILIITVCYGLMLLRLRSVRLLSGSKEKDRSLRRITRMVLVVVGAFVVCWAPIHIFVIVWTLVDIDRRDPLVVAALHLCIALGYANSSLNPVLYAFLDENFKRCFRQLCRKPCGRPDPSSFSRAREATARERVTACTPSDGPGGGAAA
Outline: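 CHO-K1 Gαi cells expressing OPRM1 or OPRD1 were exposed 30 min at 37° C to 11-point threefold agonist dilutions, in duplicate, with 20 uM forskolin final. cAMP quantified by EFC chemiluminescent competitive immunoassay against cAMP standards. EC50 by four-parameter Hill nonlinear regression.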

[3] = SGF assay (stability in simulated gastric fluid); type: in vitro ADME; conditions: pig, simulated gastric fluid (SGF) with porcine pepsin, pH 2, pepsin, 37° C.
Method: SGF was prepared by adding 20 mg NaCl, 32 mg porcine pepsin (MP Biochemicals, catalog 02102599), and 70 μl HCl to 10 ml water (final pH=2). Aliquots of SGF (0.5 ml each) were pre-warmed at 37° C. To start the reaction, 1 μl of opioid agonist peptide stock solution (10 mM in DMSO) was added to 0.5 ml SGF and thoroughly mixed such that the final peptide concentration was 20 μM. The reactions were incubated at 37° C. with gentle shaking.
At each timepoint (0, 15, 30, 60 min) 50 µl aliquots were removed and added to 200 ul of acetonitrile containing 0.1% formic acid to quench the reaction. Samples were stored at 4° C. until the end of the experiment and centrifuged at 10,000 rpm for 5 minutes. Aliquots of the supernatant were removed, diluted 1:1 into distilled water containing internal standard, and analyzed by LCMS/MS. The percent of the opioid agonist peptide remaining at each timepoint was calculated based on the peak area response ratio of the opioid agonist peptide to the internal standard. Time 0 was set to 100%, and all later timepoints were calculated relative to time 0. Half-lives were calculated by fitting to a first-order exponential decay equation using GraphPad.

[4] = biological target: T2, μ-opioid receptor (MOR) (Homo sapiens, UniProt P35372); assay: MOR agonist cAMP assay (HitHunter cAMP, forskolin-stimulated); type: cell-based
T2 construct: host or cells: cAMP Hunter CHO-K1 OPRM1 Gαi cell line
T2 sequence (P35372 whole entry): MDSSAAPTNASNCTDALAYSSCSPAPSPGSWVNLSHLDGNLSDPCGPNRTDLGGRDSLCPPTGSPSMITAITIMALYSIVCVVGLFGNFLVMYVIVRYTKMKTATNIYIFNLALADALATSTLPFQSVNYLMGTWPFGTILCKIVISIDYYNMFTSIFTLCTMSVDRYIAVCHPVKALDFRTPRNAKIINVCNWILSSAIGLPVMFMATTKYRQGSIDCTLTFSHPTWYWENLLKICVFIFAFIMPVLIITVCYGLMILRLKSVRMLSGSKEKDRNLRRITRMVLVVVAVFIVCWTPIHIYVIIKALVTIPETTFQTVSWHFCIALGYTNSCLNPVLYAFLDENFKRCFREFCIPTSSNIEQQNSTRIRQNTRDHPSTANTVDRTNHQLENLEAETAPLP
Method: The HitHunter® cAMP chemiluminescent assay kit (DiscoveRx, Cat# 90-0075 SM25) was used to detect cAMP production in cAMP Hunter™ Gαi cell lines over expressing either Human-ORPM1 (Discoverx, Catalog# 95-0107C2) or Human-ORPD1 (DiscoveRx, Catalog# 95-0108C2). Opioid agonist binding to the Gαi receptors inhibits the intracellular cAMP accumulation induced by forskolin, which activates adenylate cyclase and increases intracellular levels of cAMP.
Cells were cultured in media consisting of Ham's F-12 Nutrient Mix (Life Technologies, Catalog#31765035), 10% FBS (Life Technologies, Catalog# 16140-071), 4 mM GlutaMAX (Life Technologies, Catalog#35050-061), […] (Life Technologies), 100 ug/ml of Penn-Strep (Life Technologies) and 0.5 mg/ml Geneticin (Life Technologies, Catalog# 10131-027). The cultures were maintained at 37° C. under 5% CO2.
In preparation for cAMP assay, the cells were seeded at a density of 300,000 cells/ml in 100 ul of media/well in 96-well microplate. Wells that were designated for cAMP standards were left empty.
Opioid agonist serial dilutions were prepared in separate dilution plate (11-point series of 3× (3-fold) dilution) in Cell Assay buffer, including 3× forskolin for Gαi target. For Hunter CHO-K1 OPRM1 or CHO-K1 OPRD1 Gαi Cell Lines, the final forskolin concentration was 20 uM.
15 ul of each 3× opioid agonist serial dilution was added in the presence of forskolin in duplicate to the designated wells. The final concentration of each dilution was at 3× of the final screening concentration. The assay plate was incubated for 30 min, at 37° C. under 5% CO2.
Cellular cAMP concentrations were measured using the HitHunter cAMP Assay kit following the manufacturer's protocol. HitHunter cAMP assay is a gain-of-signal competitive immunoassay based on Enzyme Fragment Complementation (EFC) technology. The kit uses β-galactosidase (β-gal) enzyme split into Enzyme Donor (ED) and Enzyme Acceptor (EA). The cellular cAMP and ED-labelled cAMP compete for anti-cAMP antibody. […] When cellular cAMP level is high, it competes for the anti-cAMP antibody, thereby releasing ED-cAMP to complement with EA to produce a luminescent signal. The amount of signal is directly proportional to the amount of cAMP in cells and can be quantified using cAMP standards. The assay plates were read using a PerkinElmer Envision instrument to detect the chemiluminescence signal in each well (luminescence reader at 0.1 to 1 second/well). Data analysis was performed using Graphpad Prism 7.EC50 was calculated by nonlinear regression, using the four-parameter hill equation.

| Structure (SMILES) | SIF (min) ([1]; Table 4, SIF half-life) | EC50 [2] | half-life at 20 μM [1] | half-life at 20 μM [3] | EC50 [4] |
| --- | --- | --- | --- | --- | --- |
| Cc1cc(C(N)=O)cc(C)c1C[C@H](N)C(=O)N[C@H](C)C(=O)NCC(=O)N[C@H](CC(=O)N(C)CC(N)=O)Cc1ccccc1 [Seq. ID 70, H-Phe(2,6-dimethyl-4-CONH2)-a-G-bhF-Sar-NH2] | **** (for SIF half-life values, **** indicates >1290) | – | – | – | – |
| C[C@@H](NC(=O)C[C@@H](N)Cc1ccc(O)cc1)C(=O)NCC(=O)N[C@H](CC(=O)N(C)CC(N)=O)Cc1ccccc1 [compound 50] | – | > 200 nM | 360 to 1440 min | – | – |
| CN[C@@H](Cc1ccc(O)cc1)C(=O)N[C@H](C)C(=O)NCC(=O)N[C@H](CC(=O)N(C)CC(N)=O)Cc1ccccc1 [compound 51] | – | > 200 nM | 360 to 1440 min | – | – |
| C[C@@H](NC(=O)[C@@H](N)Cc1ccc(O)c(C(C)(C)C)c1)C(=O)NCC(=O)N[C@H](CC(=O)N(C)CC(N)=O)Cc1ccccc1 [compound 52] | – | > 200 nM | 360 to 1440 min | – | – |
| C[C@@H](NC(=O)[C@H](N)Cc1ccc(O)cc1)C(=O)NCC(=O)N[C@H](CC(=O)N(C)CC(N)=O)Cc1ccccc1 [compound 53] | – | > 200 nM | 360 to 1440 min | – | – |
| C[C@@H](NC(=O)[C@@H](N)CCc1ccc(O)cc1)C(=O)NCC(=O)N[C@H](CC(=O)N(C)CC(N)=O)Cc1ccccc1 [compound 54] | – | > 200 nM | 360 to 1440 min | – | – |
| C[C@@H](NC(=O)[C@@H](N)Cc1ccc(O)c(Cl)c1)C(=O)NCC(=O)N[C@H](CC(=O)N(C)CC(N)=O)Cc1ccccc1 [compound 55] | – | 10 to 50 nM | 360 to 1440 min | – | – |
| C[C@@H](NC(=O)[C@@H](N)Cc1cccc(O)c1)C(=O)NCC(=O)N[C@H](CC(=O)N(C)CC(N)=O)Cc1ccccc1 [compound 56] | – | > 200 nM | 360 to 1440 min | – | – |
| C[C@@H](NC(=O)[C@@H](N)Cc1ccc(O)c(F)c1)C(=O)NCC(=O)N[C@H](CC(=O)N(C)CC(N)=O)Cc1ccccc1 [compound 57] | – | 1 to 10 nM | 360 to 1440 min | > 1440 min | – |
| C[C@@H](NC(=O)[C@@H](N)Cc1ccc(O)c(O)c1)C(=O)NCC(=O)N[C@H](CC(=O)N(C)CC(N)=O)Cc1ccccc1 [compound 58] | – | – | 360 to 1440 min | – | – |
| Cc1cc(O)cc(C)c1C[C@H](N)C(=O)N[C@H](C)C(=O)N[C@@H](C)C(=O)N[C@H](CC(=O)N(C)CC(N)=O)Cc1ccccc1 [compound 66] (H-[Dmt][dA]A[β3hF][Sar]-NH2) | – | – | > 1440 min | 10 to 360 min | – |
| Cc1cc(O)cc(C)c1C[C@H](N)C(=O)N[C@H](C)C(=O)NCCC(=O)N[C@H](CC(=O)N(C)CC(N)=O)Cc1ccccc1 [compound 73] | – | 50 to 200 nM | > 1440 min | 10 to 360 min | – |
| Cc1cc(O)cc(C)c1C[C@H](N)C(=O)N[C@H](C)C(=O)NCC(=O)N[C@H](CC(=O)N(C)CC(=O)O)Cc1ccccc1 [compound 87] | – | < 1 nM | > 1440 min | 360 to 1440 min | – |
| Cc1cc(O)cc(C)c1C[C@H](N)C(=O)N[C@H](C)C(=O)NCC(=O)N[C@H](CC(=O)NCC(N)=O)Cc1ccccc1 [compound 112] | – | < 1 nM | > 1440 min | > 1440 min | – |
| Cc1cc(O)cc(C)c1C[C@H](N)C(=O)N[C@H](C)C(=O)NCC(=O)N[C@H](CC(=O)N(CCC(C)C)CC(N)=O)Cc1ccccc1 [compound 116] | – | < 1 nM | > 1440 min | > 1440 min | – |
| Cc1cc(O)cc(C)c1C[C@H](N)C(=O)N[C@H](C)C(=O)NCC(=O)N[C@H](CC(=O)N(CCCOC(C)C)CC(N)=O)Cc1ccccc1 [compound 117] | – | < 1 nM | > 1440 min | > 1440 min | – |
| Cc1cc(O)cc(C)c1C[C@H](N)C(=O)N[C@H](C)C(=O)NCC(=O)N[C@H](CC(=O)N(C)[C@@H](CC(C)C)C(=O)O)Cc1ccccc1 [compound 155] | – | – | > 1440 min | > 1440 min | < 1 nM |
| Cc1cc(O)cc(C)c1C[C@H](N)C(=O)N[C@H](C)C(=O)NCC(=O)N[C@H](CC(=O)N(C)[C@H](C(=O)O)c1ccccc1)Cc1ccccc1 [compound 157] | – | < 1 nM | > 1440 min | – | < 1 nM |
| CCCC[C@@H](C(=O)O)N(C)C(=O)C[C@H](Cc1ccccc1)NC(=O)CNC(=O)[C@@H](C)NC(=O)[C@@H](N)Cc1c(C)cc(O)cc1C [compound 159] | – | – | > 1440 min | > 1440 min | < 1 nM |
| Cc1cc(O)cc(C)c1C[C@H](N)C(=O)N[C@@H](C(=O)NCC(=O)N[C@H](CC(=O)N(C)[C@@H](C)C(=O)O)Cc1ccccc1)[C@H](C)O [compound 183] | – | < 1 nM | – | – | < 1 nM |
| CCC[C@@H](C(N)=O)N(C)C(=O)C[C@H](Cc1ccccc1)NC(=O)CNC(=O)[C@@H](C)NC(=O)[C@@H](N)Cc1c(C)cc(O)cc1C [compound 184] | – | < 1 nM | – | – | < 1 nM |
| Cc1cc(O)cc(C)c1C[C@H](N)C(=O)N[C@H](CCC(=O)O)C(=O)NCC(=O)N[C@H](CC(=O)N(C)[C@@H](C)C(=O)O)Cc1ccccc1 [compound 185] | – | < 1 nM | – | – | 1 to 10 nM |
| CC[C@H](C)[C@@H](C(=O)O)N(C)C(=O)C[C@H](Cc1ccccc1)NC(=O)CNC(=O)[C@@H](CCC(=O)O)NC(=O)[C@@H](N)Cc1c(C)cc(O)cc1C [compound 186] | – | < 1 nM | – | – | 1 to 10 nM |
| Cc1cc(O)cc(C)c1C[C@H](N)C(=O)N[C@H](CCC(=O)O)C(=O)NCC(=O)N[C@H](CC(=O)N(C)CC(N)=O)Cc1ccccc1 [compound 187] | – | 1 to 10 nM | – | – | < 1 nM |
| Cc1cc(O)cc(C)c1C[C@H](N)C(=O)N[C@H](C)C(=O)NCC(=O)N[C@H](CC(=O)N(C)CC(=O)N[C@H](CCCCNC(=O)COCC(=O)NCCCC[C@@H](NC(=O)CN(C)C(=O)C[C@H](Cc1ccccc1)NC(=O)CNC(=O)[C@@H](C)NC(=O)[C@@H](N)Cc1c(C)cc(O)cc1C)C(N)=O)C(N)=O)Cc1ccccc1 [compound 271] (I: H-[Dmt][dA]G[β3hF][Sar][dK]-NH2 / II: H-[Dmt][dA]G[β3hF][Sar][dK]-NH2; linker I:6-II:6 via Diglycolyl) | – | 1 to 10 nM | – | – | 1 to 10 nM |
